Experiment: Accelerated stability study, compatibility of MBZ and FCC (HPLC-UV)
Type: physicochemical
Details: drug loaded FCC with 20 and 50% drug content, 25° C., 40° C. and 60° C., 25 days
Experimental: The compatibility of MBZ and FCC was investigated by an accelerated stability study. Drug loaded FCC particles with 20 and 50% drug content were stored at 25° C., 40° C. and 60° C. over a period of 25 days. On several days the MBZ content was analyzed by HPLC-UV.

degradation products from hydrolysis (metronidazole, benzoic acid) detected: not any degradation products
SMILES: Cc1ncc([N+](=O)[O-])n1CCOC(=O)c1ccccc1 [MBZ, metronidazole benzoate]

— patent publication US9895314B2, “Delayed release pharmaceutical formulation containing porous carrier particles for colon targeting” (Tillotts Pharma AG, priority 2014, dated 2018)
